Experimental data: article PMC6153800, “Structure-Based Drug Design and Characterization of Sulfonyl-Piperazine Benzothiazinone Inhibitors of DprE1 from Mycobacterium tuberculosis” (Antimicrobial Agents and Chemotherapy, 2018)
Values after ≈ are worked out from the molar mass of the structure shown. Read-outs that look alike come from different tables or passages of the source.

Assays:
[1] = tested on: M. tuberculosis H37Rv; test: microbe, parasite or virus in culture; format: cell-based
[2] = Water solubility, shake flask method; format: physicochemical; details: for solubility at 3 days: 25 °C, water, thermodynamic from solid
Experimental: Water solubility measurements were performed using the shake flask method ([28]). Approximately 1 ml of water was added to 1 mg of compound in an Eppendorf tube, followed by incubation for 3 days at 25°C with shaking at 800 rpm. Suspensions were centrifuged at 16,100 × g for 10 min, and the supernatant was filtered using 0.22-μm-pore size filters. Filtrates were injected onto a high-performance liquid chromatography (HPLC) column (Dionex), and the amount of compound was quantified using a calibration curve.

[3] = tested on: HepG2 cells; details: for Concentration of mild cytotoxicity / TD50 / Cytotoxicity (in words): HepG2 cells; for TD50: 3 days; for Selective index: ratio TD50 (HepG2) to MIC99 (H37Rv)
[4] = in vitro; details: for microsomal CLint at 1 μg/ml / microsomal CLint: microsomes, pH 7.4; for Microsomal stability / clearance (in words), human: human microsomes; for Microsomal stability / clearance (in words), mouse: mouse microsomes
Experimental: The intrinsic clearance (CLint) of compounds was measured in both mouse and human liver microsomes. Briefly, 100 μg of mouse (CD-1) or human liver microsomes (both from Invitrogen) were mixed in 0.1 M phosphate buffer (pH 7.4) containing 0.01 μl of compound dissolved in dimethyl sulfoxide (DMSO) at 10 mg/ml in a final volume of 50 μl. In parallel, an NADPH-regenerating system (Promega) was prepared in 0.1 M phosphate buffer (pH 7.4). […] After 0, 5, 15, 30, and 60 min, the reactions were terminated by transferring […] into 100 μl of acetonitrile and placing the mixture on ice for 30 min for full protein precipitation. […] After 0 and 60 min, the reactions were terminated, prepared and analyzed as previously described.

[5] = tested on: M. tuberculosis H37Rv; test: Murine model of chronic TB; format: in vivo, Mycobacterium tuberculosis; details: BALB/cByJ mice
[6] = mouse microsomes; cited from earlier work
[7] = tested on: M. tuberculosis H37Rv; design: method as in PMID 24500695; details: ref [5]; cited from earlier work
[8] = human microsomes; cited from earlier work
[9] = Mycobacterium tuberculosis, H37RV, REMA, 7H9 broth, 6 days + 24 h resazurin, read-out: MIC99 H37Rv
[10] = Mycobacterium tuberculosis, H37Rv, read-out: MIC
[11] = 50 mg/kg by gavage 5 days a week for 4 weeks
[12] = 25 mg/kg by gavage 5 days a week for 4 weeks

SMILES	melting point	MIC [1, 9]	solubility at 3 days [2]	TD50 [3]	microsomal CLint at 1 μg/ml ([4]; CD-1, mouse)	Microsomal stability / clearance (in words), human [4]	microsomal CLint at 1 μg/ml ([4]; human)	also measured
CS(=O)(=O)N1CCN(c2nc(=O)c3cc(C(F)(F)F)cc([N+](=O)[O-])c3s2)CC1 [compound 11626095]	186 to 188 °C	0.02 µg/mL	10.6 ± 1.8 µg/mL (≈ 24.2 µM)	7.80 µg/mL	0.9 µL/min/mg	lowest clearances	1 µL/min/mg	MIC [1, 10]: 0.02 µg/mL (≈ 0.0456 µM); Concentration of mild cytotoxicity [3]: around 10 μg/ml; Selective index [3]: 390; Microsomal stability / clearance (in words), mouse [4]: lowest clearances
O=c1nc(N2CCN(S(=O)(=O)c3ccc(C(F)(F)F)cc3)CC2)sc2c([N+](=O)[O-])cc(C(F)(F)F)cc12 [compound 11326123]	222 to 225 °C	0.1 µg/mL	–	–	–	–	–	–
O=c1nc(N2CCN(S(=O)(=O)C3CC3)CC2)sc2c([N+](=O)[O-])cc(C(F)(F)F)cc12 [compound 11626091]	201 to 204 °C	0.003 µg/mL	8.6 ± 3.8 µg/mL (≈ 18.5 µM)	8.10 µg/mL	2.7 µL/min/mg	lowest clearances	9.7 µL/min/mg	Fold less active than MCZ (MIC99 relative to MCZ) ([1]; H37Rv): 15 fold; Bacterial burden in lungs lower than untreated control [5, 11]: 0.46 log10 CFU; Bacterial burden in spleens lower than untreated control [5, 11]: 1.03 log10 CFU; Concentration of mild cytotoxicity [3]: around 10 μg/ml; Selective index [3]: 2,700; Microsomal stability / clearance (in words), mouse [4]: lowest clearances
CCCCS(=O)(=O)N1CCN(c2nc(=O)c3cc(C(F)(F)F)cc([N+](=O)[O-])c3s2)CC1 [compound 11626093]	215 to 219 °C	0.001 µg/mL	0.105 ± 0.05 µg/mL (≈ 0.219 µM)	>100 µg/mL	42 µL/min/mg	metabolically stable	6.4 µL/min/mg	Fold less active than MCZ (MIC99 relative to MCZ) ([1]; H37Rv): 5 fold; MIC ([1]; H37Rv): 1 µg/mL (≈ 2.08 µM); Times less soluble in water than 11626095, 11626092 and 11626091 [2]: at least 100 times; Cytotoxicity (in words) [3]: not cytotoxic; Selective index [3]: >100,000; Microsomal stability / clearance (in words), mouse [4]: highly unstable
Cc1noc(C)c1S(=O)(=O)N1CCN(c2nc(=O)c3cc(C(F)(F)F)cc([N+](=O)[O-])c3s2)CC1 [compound 11326056]	265 to 267 °C	0.06 µg/mL	–	–	–	–	–	–
Cc1nn(C)cc1S(=O)(=O)N1CCN(c2nc(=O)c3cc(C(F)(F)F)cc([N+](=O)[O-])c3s2)CC1 [compound 11326061]	200 to 203 °C	0.4 µg/mL	–	–	–	–	–	–
NC(=O)N1c2ccccc2C=Cc2ccccc21 [Carbamazepine, reference compound]	–	–	–	–	–	–	–	microsomal CLint ([4]; CD-1, mouse): 0.6 µL/min/mg; microsomal CLint ([4]; human): 0.4 µL/min/mg
CC(=O)c1ccc(S(=O)(=O)N2CCN(c3nc(=O)c4cc(C(F)(F)F)cc([N+](=O)[O-])c4s3)CC2)cc1 [compound 11326119]	280 to 282 °C	50 µg/mL	–	–	–	–	–	–
CCn1cc(S(=O)(=O)N2CCN(c3nc(=O)c4cc(C(F)(F)F)cc([N+](=O)[O-])c4s3)CC2)c(C)n1 [compound 11326058]	218 to 220 °C	0.4 µg/mL	–	–	–	–	–	–
CCC(C)(C)c1ccc(S(=O)(=O)N2CCN(c3nc(=O)c4cc(C(F)(F)F)cc([N+](=O)[O-])c4s3)CC2)cc1 [compound 11326125]	231 to 233 °C	0.5 µg/mL	–	–	–	–	–	–
O=c1nc(N2CCN(S(=O)(=O)c3cccc4cnccc34)CC2)sc2c([N+](=O)[O-])cc(C(F)(F)F)cc12 [compound 11626094]	243 to 245 °C	0.01 µg/mL	0.088 ± 0.04 µg/mL (≈ 0.16 µM)	100.00 µg/mL	24 µL/min/mg	highly unstable	277 µL/min/mg	Times less soluble in water than 11626095, 11626092 and 11626091 [2]: at least 100 times; Cytotoxicity (in words) [3]: not cytotoxic; Selective index [3]: 10,000
COC(=O)c1sccc1S(=O)(=O)N1CCN(c2nc(=O)c3cc(C(F)(F)F)cc([N+](=O)[O-])c3s2)CC1 [compound 11326128]	127 to 129 °C	0.1 µg/mL	–	–	–	–	–	–
O=c1nc(N2CCN(S(=O)(=O)c3cc(Cl)c(Cl)s3)CC2)sc2c([N+](=O)[O-])cc(C(F)(F)F)cc12 [compound 11326122]	265 to 267 °C	0.8 µg/mL	–	–	–	–	–	–
O=c1nc(N2CCN(S(=O)(=O)c3ccc(Cl)s3)CC2)sc2c([N+](=O)[O-])cc(C(F)(F)F)cc12 [compound 11326121]	210 to 213 °C	0.03 µg/mL	–	–	–	–	–	–
CO[C@H]1/C=C/O[C@@]2(C)Oc3c(C)c(O)c4c(O)c(c(/C=N/N5CCN(C)CC5)c(O)c4c3C2=O)NC(=O)/C(C)=C\C=C\[C@H](C)[C@H](O)[C@@H](C)[C@@H](O)[C@@H](C)[C@H](OC(C)=O)[C@@H]1C [Rifampin, reference compound]	–	0.0008 µg/mL	–	100.00 µg/mL	–	–	–	–
O=c1nc(N2CCN(S(=O)(=O)c3cccs3)CC2)sc2c([N+](=O)[O-])cc(C(F)(F)F)cc12 [compound 11326059]	210 to 214 °C	0.004 µg/mL	< 0.01 µg/mL	100 µg/mL	18.6 µL/min/mg	medium clearances	16.8 µL/min/mg	Times less soluble in water than 11626095, 11626092 and 11626091 [2]: at least 100 times; Cytotoxicity (in words) [3]: not cytotoxic; Selective index [3]: 25,000; Microsomal stability / clearance (in words), mouse [4]: medium clearances
O=c1nc(N2CCN(CC3CCCCC3)CC2)sc2c([N+](=O)[O-])cc(C(F)(F)F)cc12 [PBTZ169, macozinone, reference compound]	–	0.0002 µg/mL	–	44.00 µg/mL	–	–	–	CLint mouse microsome [6]: 36.7 μl/min/mg protein; Bacterial burden in lungs lower than untreated control [5, 12]: 1.03 log10 CFU; Bacterial burden in spleens lower than untreated control [5, 12]: 1.47 log10 CFU; Times more soluble in water than calculated [2]: 400 times; MIC against M. tuberculosis [7]: 0.3 nM (≈ 0.137 ng/mL); CLint human microsome [8]: 28 μl/min/mg protein
O=c1nc(N2CCN(S(=O)(=O)c3ccc(OC(F)(F)F)cc3)CC2)sc2c([N+](=O)[O-])cc(C(F)(F)F)cc12 [compound 11326120]	–	0.1 µg/mL	–	–	–	–	–	–
CCS(=O)(=O)N1CCN(c2nc(=O)c3cc(C(F)(F)F)cc([N+](=O)[O-])c3s2)CC1 [compound 11626092]	204 to 207 °C	0.003 µg/mL	10.7 ± 4.6 µg/mL (≈ 23.6 µM)	8.90 µg/mL	3 µL/min/mg	lowest clearances	1.4 µL/min/mg	MIC [1, 10]: 0.003 µg/mL (≈ 0.00663 µM); Concentration of mild cytotoxicity [3]: around 10 μg/ml; Selective index [3]: 2,967; Microsomal stability / clearance (in words), mouse [4]: lowest clearances
C[C@H]1COC2(CCN(c3nc(=O)c4cc(C(F)(F)F)cc([N+](=O)[O-])c4s3)CC2)O1 [BTZ043]	–	–	–	–	–	–	–	CLint mouse microsome [6]: 16.5 μl/min/mg protein; CLint human microsome [8]: 4.20 μl/min/mg protein
O=c1nc(N2CCN(S(=O)(=O)C3CCCCC3)CC2)sc2c([N+](=O)[O-])cc(C(F)(F)F)cc12 [compound 11326127]	–	0.006 µg/mL	< 0.01 µg/mL	>100 µg/mL	19 µL/min/mg	medium clearances	21.5 µL/min/mg	MIC99 ([1]; Mycobacterium tuberculosis, H37RV): 6 nM (≈ 3.04 ng/mL); Times less soluble in water than 11626095, 11626092 and 11626091 [2]: at least 100 times; Cytotoxicity (in words) [3]: not cytotoxic; Microsomal stability / clearance (in words), mouse [4]: medium clearances
Cc1oncc1S(=O)(=O)N1CCN(c2nc(=O)c3cc(C(F)(F)F)cc([N+](=O)[O-])c3s2)CC1 [compound 11326126]	281 to 283 °C	1.6 µg/mL	–	–	–	–	–	–
CCCCc1ccc(S(=O)(=O)N2CCN(c3nc(=O)c4cc(C(F)(F)F)cc([N+](=O)[O-])c4s3)CC2)cc1 [compound 11326124]	226 to 229 °C	800 µg/mL	–	–	–	–	–	–
